From patent publication US12077503B2, “Substituted cyclic amides and their use as herbicides” (FMC CORPORATION, priority 2015, dated 2024)
Like-named read-outs stand apart in the source and are kept apart here.

Assays:
Assay type in all cases: in vivo
[1] = system: pigweed (Amaranthus retroflexus); test: Test A preemergence; details: Amaranthus retroflexus, pre-emergence, 240 h; for pest or weed control at 125 g/ha: 125 g ai/ha, 0 to 100 scale where 0 is no effect and 100 is complete control; for pest or weed control at 500 g/ha: 500 g ai/ha
[2] = system: blackgrass (Alopecurus myosuroides); test: Test A postemergence; details: Alopecurus myosuroides, post-emergence, 240 h, postemergence; for pest or weed control at 125 g/ha: 125 g ai/ha
Outline: (§1)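 Each rating is a visual injury score from 0 to 100 given about 10 d after treatment, judged against untreated controls kept alongside in the greenhouse. In loam soil–sand blend, seeds got a preemergence directed soil spray, while postemergence plants were 2 to 10 cm tall at spraying.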

[3] = system: ragweed (common ragweed, Ambrosia elatior); test: Test A postemergence; details: Ambrosia artemisiifolia, post-emergence, 240 h, postemergence; for pest or weed control at 125 g/ha: 125 g ai/ha
Outline: as §1

[4] = system: barnyardgrass (Echinochloa crus-galli); test: Test A postemergence; details: Echinochloa crus-galli, post-emergence, 240 h, postemergence; for pest or weed control at 125 g/ha: 125 g ai/ha
Outline: as §1

[5] = system: corn (Zea mays); test: Test A postemergence; details: Zea mays, post-emergence, 240 h, postemergence; for plant injury at 125 g/ha: 125 g ai/ha
Outline: as §1

[6] = system: wheat (Triticum aestivum); test: Test A postemergence; details: Triticum aestivum, post-emergence, 240 h, postemergence; for plant injury at 125 g/ha: 125 g ai/ha
Outline: as §1

[7] = system: Kochia (Kochia scoparia); test: Test A postemergence; details: Bassia scoparia, post-emergence, 240 h, postemergence; for pest or weed control at 125 g/ha: 125 g ai/ha
Outline: as §1

[8] = system: ryegrass, Italian (Italian ryegrass, Lolium multiflorum); test: Test A postemergence; details: Lolium multiflorum, post-emergence, 240 h, postemergence; for pest or weed control at 125 g/ha: 125 g ai/ha
Outline: as §1

[9] = system: giant foxtail (Setaria faberii); test: Test A postemergence; details: Setaria faberi, post-emergence, 240 h, postemergence; for pest or weed control at 125 g/ha: 125 g ai/ha
Outline: as §1

[10] = system: Galium (catchweed bedstraw, Galium aparine); test: Test A postemergence; details: Galium, post-emergence, 240 h, postemergence; for pest or weed control at 125 g/ha: 125 g ai/ha
Outline: as §1

[11] = system: pigweed (Amaranthus retroflexus); test: Test A postemergence; details: Amaranthus retroflexus, post-emergence, 240 h, postemergence; for pest or weed control at 125 g/ha: 125 g ai/ha
Outline: as §1

[12] = system: ducksalad (Heteranthera limosa); test: Test B flooded paddy test; details: Heteranthera limosa, Flood, 250 g ai/ha, read-out: Ducksalad plant response rating
Outline: (§2)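 Visual ratings (0 none to 100 complete control) are relative to untreated plants, taken 13–15 d after treatment in a greenhouse. Test material went straight into floodwater standing 3 cm above the soil, kept constant, on plants at the 2-leaf stage.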

[13] = system: rice (Oryra sativa); test: Test B flooded paddy test; details: Oryza sativa, Flood, 250 g ai/ha, read-out: Rice plant response rating
Outline: as §2

[14] = system: barnyardgrass (Echinochloa crus-galli); test: Test B flooded paddy test; details: Echinochloa crus-galli, Flood, 250 g ai/ha, read-out: Barnyardgrass plant response rating
Outline: as §2

[15] = system: sedge, umbrella (small-flower umbrella sedge, Cyperus difformis); test: Test B flooded paddy test; details: Cyperus difformis, Flood, 250 g ai/ha, read-out: Sedge, Umbrella plant response rating
Outline: as §2

[16] = preemergence, read-out: Pigweed plant response rating
[17] = Preemergence, visual injury vs untreated controls after approximately 10 d, read-out: Pigweed plant response rating (0 to 100 scale where 0 is no effect and 100 is complete control)
[18] = visual injury rating after approximately 10 d, read-out: Blackgrass plant response rating (0 to 100 scale, 0 no effect, 100 complete control)
[19] = visual injury rating after approximately 10 d, read-out: Ragweed plant response rating (0 to 100 scale, 0 no effect, 100 complete control)
[20] = visual injury rating after approximately 10 d, read-out: Barnyardgrass plant response rating (0 to 100 scale, 0 no effect, 100 complete control)
[21] = visual injury rating after approximately 10 d, read-out: Corn plant response rating (0 to 100 scale, 0 no effect, 100 complete control)
[22] = visual injury rating after approximately 10 d, read-out: Wheat plant response rating (0 to 100 scale, 0 no effect, 100 complete control)
[23] = visual injury rating after approximately 10 d, read-out: Kochia plant response rating (0 to 100 scale, 0 no effect, 100 complete control)
[24] = visual injury rating after approximately 10 d, read-out: Ryegrass, Italian plant response rating (0 to 100 scale, 0 no effect, 100 complete control)
[25] = visual injury rating after approximately 10 d, read-out: Foxtail, Giant plant response rating (0 to 100 scale, 0 no effect, 100 complete control)
[26] = visual injury rating after approximately 10 d, read-out: Galium plant response rating (0 to 100 scale, 0 no effect, 100 complete control)
[27] = visual injury rating after approximately 10 d, read-out: Pigweed plant response rating (0 to 100 scale, 0 no effect, 100 complete control)
[28] = scale of 0 to 100 where 0 is no effect and 100 is complete control
[29] = 0 to 100 scale where 0 is no effect and 100 is complete control

SMILES: CN1C[C@H](c2cccc(C3CC3)c2)[C@@H](C(=O)Nc2cccc(F)c2F)C1=O [Compound 816]
- pest or weed control at 125 g/ha [1, 16]: 0%
- pest or weed control at 500 g/ha [1, 17]: 60%
- pest or weed control at 125 g/ha [2, 18]: 60%
- pest or weed control at 125 g/ha [3, 19]: 0%
- pest or weed control at 125 g/ha [4, 20]: 90%
- plant injury at 125 g/ha [5, 21]: 90%
- plant injury at 125 g/ha [6, 22]: 30%
- pest or weed control at 125 g/ha [7, 23]: 30%
- pest or weed control at 125 g/ha [8, 24]: 60%
- pest or weed control at 125 g/ha [9, 25]: 90%
- pest or weed control at 125 g/ha [10, 26]: 60%
- pest or weed control at 125 g/ha [11, 27]: 0%
- pest or weed control at 250 g/ha [12, 28]: 75%
- pest or weed control at 250 g/ha [13, 28]: 30%
- pest or weed control at 250 g/ha [14, 28]: 55%
- pest or weed control at 250 g/ha [15, 28]: 0%

SMILES: CN1C[C@H](c2cc(F)cc(F)c2)[C@@H](C(=O)Nc2ccncc2F)C1=O [Compound 1095]
- pest or weed control at 125 g/ha ([1]; preemergence, approx. 10 d, read-out: Pigweed plant response rating): 0%
- pest or weed control at 500 g/ha ([1]; preemergence, visual injury rating about 10 d after treatment, 0 to 100 scale (0 no effect, 100 complete control), read-out: Pigweed plant response rating): 30%
- pest or weed control at 125 g/ha ([2]; visual injury on 0 to 100 scale (0 no effect, 100 complete control), approx. 10 d, read-out: Blackgrass plant response rating): 0%
- pest or weed control at 500 g/ha ([2]; 500 g ai/ha, 0 to 100 scale, 0 is no effect, 100 is complete control, read-out: Blackgrass plant response rating): 0%
- pest or weed control at 125 g/ha ([3]; visual injury on 0 to 100 scale (0 no effect, 100 complete control), approx. 10 d, read-out: Ragweed plant response rating): 0%
- pest or weed control at 500 g/ha ([3]; 500 g ai/ha, 0 to 100 scale, 0 is no effect, 100 is complete control, read-out: Ragweed plant response rating): 0%
- pest or weed control at 125 g/ha ([4]; visual injury on 0 to 100 scale (0 no effect, 100 complete control), approx. 10 d, read-out: Barnyardgrass plant response rating): 0%
- pest or weed control at 500 g/ha ([4]; 500 g ai/ha, 0 to 100 scale, 0 is no effect, 100 is complete control, read-out: Barnyardgrass plant response rating): 0%
- plant injury at 125 g/ha ([5]; visual injury on 0 to 100 scale (0 no effect, 100 complete control), approx. 10 d, read-out: Corn plant response rating): 0%
- plant injury at 500 g/ha ([5]; 500 g ai/ha, 0 to 100 scale, 0 is no effect, 100 is complete control, read-out: Corn plant response rating): 0%
- plant injury at 125 g/ha ([6]; visual injury on 0 to 100 scale (0 no effect, 100 complete control), approx. 10 d, read-out: Wheat plant response rating): 0%
- plant injury at 500 g/ha ([6]; 500 g ai/ha, 0 to 100 scale, 0 is no effect, 100 is complete control, read-out: Wheat plant response rating): 0%
- pest or weed control at 125 g/ha ([7]; visual injury on 0 to 100 scale (0 no effect, 100 complete control), approx. 10 d, read-out: Kochia plant response rating): 0%
- pest or weed control at 500 g/ha ([7]; 500 g ai/ha, 0 to 100 scale, 0 is no effect, 100 is complete control, read-out: Kochia plant response rating): 0%
- pest or weed control at 125 g/ha ([8]; visual injury on 0 to 100 scale (0 no effect, 100 complete control), approx. 10 d, read-out: Ryegrass, Italian plant response rating): 0%
- pest or weed control at 500 g/ha ([8]; 500 g ai/ha, 0 to 100 scale, 0 is no effect, 100 is complete control, read-out: Ryegrass, Italian plant response rating): 0%
- pest or weed control at 125 g/ha ([9]; visual injury on 0 to 100 scale (0 no effect, 100 complete control), approx. 10 d, read-out: Foxtail, Giant plant response rating): 0%
- pest or weed control at 500 g/ha ([9]; 500 g ai/ha, 0 to 100 scale, 0 is no effect, 100 is complete control, read-out: Foxtail, Giant plant response rating): 0%
- pest or weed control at 125 g/ha ([10]; visual injury on 0 to 100 scale (0 no effect, 100 complete control), approx. 10 d, read-out: Galium plant response rating): 0%
- pest or weed control at 500 g/ha ([10]; 500 g ai/ha, 0 to 100 scale, 0 is no effect, 100 is complete control, read-out: Galium plant response rating): 0%
- pest or weed control at 125 g/ha ([11]; visual injury on 0 to 100 scale (0 no effect, 100 complete control), approx. 10 d, read-out: Pigweed plant response rating): 0%
- pest or weed control at 500 g/ha ([11]; 500 g ai/ha, 0 to 100 scale, 0 is no effect, 100 is complete control, read-out: Pigweed plant response rating): 0%
- pest or weed control at 250 g/ha [12, 29]: 50%
- pest or weed control at 250 g/ha [13, 29]: 0%
- pest or weed control at 250 g/ha [14, 29]: 0%
- pest or weed control at 250 g/ha [15, 29]: 0%

SMILES: CCOc1ccc([C@H]2CN(C)C(=O)[C@@H]2C(=O)Nc2cccc(F)c2F)cc1 [Compound 904]
- pest or weed control at 125 g/ha [1, 16]: 0%
- pest or weed control at 500 g/ha [1, 17]: 50%
- pest or weed control at 125 g/ha [2, 18]: 30%
- pest or weed control at 125 g/ha [3, 19]: 0%
- pest or weed control at 125 g/ha [4, 20]: 80%
- plant injury at 125 g/ha [5, 21]: 0%
- plant injury at 125 g/ha [6, 22]: 0%
- pest or weed control at 125 g/ha [7, 23]: 30%
- pest or weed control at 125 g/ha [8, 24]: 0%
- pest or weed control at 125 g/ha [9, 25]: 80%
- pest or weed control at 125 g/ha [10, 26]: 30%
- pest or weed control at 125 g/ha [11, 27]: 0%
- pest or weed control at 250 g/ha [12, 28]: 0%
- pest or weed control at 250 g/ha [13, 28]: 0%
- pest or weed control at 250 g/ha [14, 28]: 0%
- pest or weed control at 250 g/ha [15, 28]: 0%
